Where a SMILES comes first, the peptide text is derived from it. Bridges are numbered along the chain shown (N, C = ends).
How the values were obtained:
[1] = system: E. coli O111:B4 LPS-challenged BALB/c mice; assay: LPS-challenged mice experiment (septicemia model); format: in vivo; conditions: LPS 15 mg/kg i.p.; MccJ25 4.55 and 9.1 mg/kg BW; followed 72 h
[2] = system: cocktail of MDR E. coli strains (521ZQE, AZ1, WWE921A-2) in C57BL/6 J mice; assay: Cocktail of MDR E. coli strains challenge in mice, MccJ25 pretreatment; format: in vivo
Excerpt: 4-week-old C57BL/6 J female mice [initial body weight (BW) 15.23 ± 0.09] were purchased from Charles River Laboratories (Beijing, China) and raised under standard conditions. The producer was described in “Mice Model” section. […] Mice were maintained in a 3-d acclimatization period of time. Afterwards, 36 mice were randomly separated into three experimental groups based on BW: Uninfected group, control; Infected group; MccJ25+infected group, 12 mice per group in four cages, three mice/cage, total of 12 cages. Cocktail of MDR E. coli strains infection producers were performed as our previous described previously ([30]), experimental roadmap was shown in Figure 10A . A single of colony of MDR E. coli strains 521ZQE, AZ1, and WWE921A-2 were incubated in LB medium and grew to stationary stage (OD600 > 3), respectively. All mice were pretreated 0.2 ml PBS (control and infected group) or 0.2 ml PBS containing with 9.1 mg/kg/BW MccJ25 (MccJ25+infected group) for 3 d (once/day) prior to infection. Infected mice and MccJ25+infected mice received 0.2 ml sterile PBS containing 5 × 10^8 cocktail of MDR E. coli strains by oral gavage. The control group still received 0.2 ml of sterile PBS by gavage for 2 d. The concentration of biosynthetic MccJ25 was selected based on our previous study ([24]). After 3 d, mice were euthanized friendly, intestinal tissues, organs and serum were obtained. Fresh fecal, tissues, liver, and spleen were immediately placed on ice (1-2 h) and transported to the laboratory to count the specific bacteria in the laboratory. Serum was kept in -20°C and part of jejunum, colon, and spleen were stored in the -80°C for cytokines analysis.
In the LPS-challenged mice experiment, lifespan of mice was monitored for 72 h. In the cocktail of MDR E. coli strains infection experiment, BW change, rectal temperature, diarrhea scores and fecal image, or survival rate were measured. For the diarrhea score evaluation producer was referred to previous study ([24]).
The 0.1 g fresh jejunum, ileum, proximal colon, feces, liver, and spleen were collected and kept in sterile tubes containing 0.9 ml sterile physiological saline solution. Then, cryogenic lapping instrument (Shanghai Jingxin Industrial Development Co., Ltd., China) was applied to prepare the homogenate. 0.1 mL indicated samples prepared by ten-fold serial dilutions method were plated on indicated antibiotics MacConkey (OXOID, Hampshire, UK) and ChromAgar™ (OXOID, Hampshire, UK) plates. These plates were cultured overnight at 37°C to count colonies. Colony numbers were expressed as log 10 CFU/g of samples. All counts were performed in triplicate. Colonies were observed on the MacConkey agar and ChromAgar plates in the absence of indicated antibiotics, we considered that they were enterobacteria-like bacterium belonging to the class of family Enterobacteriaceae.
Quantification of total bacteria, E. coli, Lactobacillus, and Bifidobacterium was done using PCR. In brief, total microbial DNA from cecal digesta was obtained. The total bacteria, Lactobacillus, Bifidobacterium, E. coli primers were synthesized in Invitrogen (Shanghai, China), which are listed in Table S1 . Standard curves of indicated bacteria were generated based on the construction of standard plasmids containing the 16S rRNA genes. The copy numbers of total bacteria, Lactobacillus, Bifidobacterium, and E. coli were calculated referring to standard curves as described previously ([30]).
The concentrations of tumor necrosis factor-α (TNF-α), interleukin-6 (IL-6), IL-4, interferon (IFN)-γ, and nitric oxide (NO) in serum were measured. In addition, TNF-α and NO levels were also measured in the supernatant of RAW264.7 cells. ELISA was performed using a commercial ELISA kit (eBioscience, San Diego, USA). LPS levels in plasma were analyzed using the QCL-1000 kit (Xiamen, China) based on the manufacturer’s standards. […]

[3] = 9.1 mg/kg/BW oral gavage for 3 d before infection
[4] = ELISA, vs infected group, n = 6
[5] = jejunum, colon and spleen, qPCR, vs infected mice

CC[C@H](C)[C@H](NC(=O)CNC(=O)[C@@H](NC(=O)[C@H](Cc1ccccc1)NC(=O)[C@H](Cc1ccc(O)cc1)NC(=O)[C@@H]1CCC(=O)NCC(=O)NCC(=O)N[C@@H](C)C(=O)NCC(=O)N[C@@H](Cc2c[nH]cn2)C(=O)N[C@@H](C(C)C)C(=O)N2CCC[C@H]2C(=O)N1)C(C)C)C(=O)NCC(=O)N[C@H](C(=O)N1CCC[C@H]1C(=O)N[C@H](C(=O)N[C@@H](CO)C(=O)N[C@@H](Cc1ccccc1)C(=O)N[C@@H](Cc1ccc(O)cc1)C(=O)NCC(=O)O)[C@@H](C)CC)[C@@H](C)O [MccJ25, microcin J25] (GGAGHVPEYFVGIGTPISFYG-OH; lactam N-8 (inferred); C-terminus assumed)
survival rate [1]: increased | body weight [2, 3]: increasing BW | diarrhea incidence [2, 3]: decreasing diarrhea incidence | rectal temperature [2, 3]: increasing | lifespan / survival ([2]; 9.1 mg/kg/BW oral gavage once/day for 3 d before infection, n = 12): prolonging the lifespan | serum IL-4 [2, 4]: higher IL-4 | serum proinflammatory cytokines (TNF-α, IFN-γ, IL-6) [2, 4]: lower proinflammatory cytokines | MDR E. coli colonization in liver and spleen ([2]; d 3 after infection, n = 6): effectively reduced the degree of clinically source MDR E. coli colonization and expansion | IL-10 mRNA [2, 5]: high anti-inflammatory cytokine IL-10 | mRNA of proinflammatory indicators (TNF-α, IL-6, IFN-γ, IL-1β, TLR4, NF-κB) [2, 5]: lower proinflammatory indicators | MDR E. coli in the intestines (jejunum, ileum, colon) ([2]; plate counts, d 3 after infection): significantly reduced the number and colonization | copy number of E. coli in cecal contents ([2]; real-time qPCR): sharply decreased the copy number | copy numbers of Lactobacillus, Bifidobacterium in cecal contents ([2]; real-time qPCR): significantly increased the copy numbers | total bacteria copy numbers in cecal contents ([2]; real-time qPCR): no significant difference | bacterial load in the feces ([2]; vs infected group, n = 6): markedly decreased the bacterial load

From paper PMC8894198, “Biosynthetic Microcin J25 Exerts Strong Antibacterial, Anti-Inflammatory Activities, Low Cytotoxicity Without Increasing Drug-Resistance to Bacteria Target” (Frontiers in Immunology, 2022)
